Source: patent publication US20080311589A1, “METHOD OF HIGH-THROUGHPUT SCREENING OF MOLECULES AND COMPOUNDS FOR THEIR EFFECTS ON BIOLOGICAL AND CHEMICAL PROCESSES” (priority 1999, published 2008)

How the values were obtained:
[1] = system: transiently transfected TGFβ-responsive reporter; assay: transient transfection luciferase assay, p3TPLux; format: cell-based, mink
Experimental: LUCIFERASE ASSAYS: Our transient transfection luciferase assay was described previously by us (Stockwell et al., Chem Biol 5:385, 1998). Briefly, 100,000 Mv1Lu mink lung epithelial cells were transiently transfected in 12-well dishes with 400 ng p3TPLux or pNFkB-Lux, with or without 50 ng pFC-MEKK, in 300 μL minimal essential medium with non-essential amino acids. The DEAE-dextran/chloroquine/DMSO methods was used for transfection (Stockwell et al., Chem Biol 6:71, 1999). After cell lysis in 120 μL lysis buffer, a Beckman LS 6500 liquid scintillation counter was used in single photon mode to quantitate luminescence. For detection of luciferase activity in 6F cells (including the primary screen), 20,000 6F cells were seeded in 50 μL of 10% mink medium in each well of a white 384-well plate (Nalge Nune International; Naperville, Ill.; cat#164610) using a Multidrop 384 liquid dispenser (Lab Systems; Helsinki, Finland). After 16 hours, medium was removed using a 24 channel wand (V&P Scientific, Inc.; San Diego, Calif.; cat#VP 186L), the cells were washed with 75 μL of 0.2% mink medium (containing 0.2% FBS), and reagents were added in 40 μL of 0.2% medium. For the primary screen, reagents were added by pin transfer using 384 polypropylene pin arrays (Matrix Technologies; Hudson, N.H.). After 24 hours, the cells were cooled on ice and washed twice with 75 μL Hanks Balanced Salt Solution (HBSS; GibcoBRL; cat#24020-117). Then 20 μL lysis buffer (25 mM glycylglycine (Sigma; cat#E-0396), 1% Triton X-100 (Sigma; cat#T-9284), 1 mM dithiothreitol (DTT; Sigma; cat#D-5545), 1 mM phenylmethylsulfonyl fluoride (PMSF; Sigma; cat#P-7626)) was added to each well with a Multidrop. After incubating the cells for five minutes on ice, 20 μL of ATP/luciferin solution was added (25 mM glycylglycine pH 7.8, 15 mM MgSO4, 4 mM EGTA, 6.25 mM K2HPO4 (Sigma; cat#P5504) pH 7.8, 5 mM DTT, 75 μM D-luciferin (Sigma, cat# L-9504, 2 mM ATP (Sigma; cat#A-7699)). Light output was immediately measured with an Analyst 384-well platereader (LJL), with 0.5 second counting time per well.

[2] = system: Mv1Lu mink lung epithelial cells; assay: 6144 well BrdU cytoblot; format: cell-based; conditions: approximately 6000 nanowells
Experimental: FIG. 4. BrdU incorporation is detected in 6144 well plates with a cytoblot. (a) The actual size of the wells of a 6144 well plate (nanowells; You et al. Chem. Biol. 4:969-975. 1997) is shown. (b) 25× magnification of the blot shown in (a). The indicated number of cells (Mv1Lu) were seeded in […] volumes in duplicate in 1% mink medium with or without 10 μM BrdU or 400 pM TGF-β, as indicated. The cells were cultured for 24 hours at 37° C. with 5% CO2 and then a 6144 well cytoblot was performed (see protocols). (c) Two separate nanowell plates (You et al. Chem. Biol. 4:969-975. 1997) were seeded with 20,000 Mv1Lu cells/mL in 1% mink medium with or without 500 pM TGF-13. After 26 hours at 37° C. with 5% CO2 BrdU was added to a final concentration of 10 μM. The cells were incubated for an additional 18 hours at 37° C. with 5% CO2 and then a 6144 well cytoblot was performed (see protocols).
The anti-BrdU cytoblot assay was then tested for its ability to detect the inhibition of BrdU uptake in a plate containing approximately 6000 arrayed “nanowells” (You et al. Chem Biol 4:969-975. 1997. Incorporated herein by reference). […] The following protocol provides experimental detail.
The reagents to be tested were prepared in 1536 well plates with one or more test compound per well. […]

BS-C-1 cells = assay: fluorescence microscopy and live imaging of BS-C-1 cells; format: cell-based, monkey
Experimental: We investigated the phenotype of mammalian cells (BS-C-I) treated with the compounds of group III. […] Our examination of the distribution of microtubules, actin, and chromatin in fixed cells by fluorescence microscopy allowed us to divide the small molecules into three classes.
In brief, BSCI cells were seeded on glass coverslips and cultured overnight.
We then asked whether the chromosomes surrounding the monoastral microtubule array maintain microtubule attachment.

Substance	activation of transiently versus stably transfected TGFβ-responsive reporter [1]	BrdU incorporation [2]	mitotic cells displaying the monoastral phenotype (BS-C-1 cells)	microtubule, spindle and chromosome phenotype (BS-C-1 cells; BS-C-1 cells, 1A at 40 μM for 4 hours)	chromosome attachment to microtubules (BS-C-1 cells; live images of BS-C-1 cells)
TGF-β: anti-mitogen transforming growth factor β, multifunctional polypeptide signaling factor	equally effective	prevented BrdU incorporation	–	–	–
monastrol	–	–	Over 90%	the bipolar spindle was replaced with a monoastral microtubule array surrounded by a ring of chromosomes	does not inhibit chromosome attachment to microtubules
